Results reported in patent publication US5652335A, “Physiologically active substance well capable of permeating biomembrane” (Teikoku Seiyaku Kabushiki Kaisha, priority 1990, dated 1997).

Tests used:
[1] = system: extirpated intestine of guinea pig; experiment: suppressing effect on shrinkage of extirpated intestine of guinea pig by electric stimulations (method of Kosterlitz); format: cell-based; conditions: for ED50 (mol) (mean ± s.e.m.): suppression of electrically stimulated shrinkage of extirpated guinea pig intestine, in vitro
Method: Adamantylated enkephalin derivatives a and b obtained in Examples 1 and 2 were examined for in vivo analgesic effect and in vitro suppressing effect to shrinkage of extirpated intestine of guinea pig by electric stimulations.
A suppressing effect for the shrinkage of extirpated intestine of guinea pig of the adamantylated enkephalin derivatives a and b was measured in accordance with the method of Kosterlitz (H. W. Kosterlitz, A. A. Watterfield, Ann. Rev. Pharmacol., 15, 29, (1975)).

[2] = system: mouse (dd-Y series); experiment: in vivo analgesic activity by Randall Selitto method; conditions: subcutaneous administration to mouse, 1-50 mg/kg, in DMA: physiological saline (4:6); FIG. 2-5
Method: Adamantylated enkephalin derivatives a and b are subcutaneously administrated to a mouse, and an analgesic effect in the central nervous system was measured by Randall Selitto method. That is, the derivatives a and b were dissolved in a mixed solution of DMA: physiological saline solution (4:6) and about 100 μl of the solution was subcutaneously administrated to a mouse (dd-Y series: about 20 g) (1-50 mg/kg), and the analgesic effect was measured on every predetermined time interval after the administration by the Randall Selitto method.

Compound | Relative Potency [1] | ED50 (mol) (mean ± s.e.m.) [1] | analgesic activity [2] | suppression for shrinkage, antagonism by naloxon ([1]; extirpated guinea pig intestine)
CC(C)C[C@H](NC(=O)[C@H](Cc1ccccc1)NC(=O)CNC(=O)[C@@H](C)NC(=O)[C@@H](N)Cc1ccc(O)cc1)C(=O)O [[D-Ala^2] Leucine enkephalin, H-Tyr-D.Ala-Gly-Phe-Leu-OH, reference compound] | 0.89 | 3.6 ± 1.17 × 10^-8 mol |  | 
H-Tyr-D.Ala-Gly-Phe-Leu-NH-Ada [Derivative b] | 2.13 | 1.5 ± 0.71 × 10^-8 mol | inferior to morphine hydrogen chloride but superior to the controls | showed suppression for shrinkage each of which was antagonized by naloxon
